Laboratory results as given in ChEMBL document CHEMBL1201862, “PubChem BioAssay data set” (2004).
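In this assay, cells in 96-well plates receive the compound at five concentrations for 48 hours. Endpoints are linearly interpolated between the surrounding concentrations. GI50 marks 50% less growth.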 Calls of active or inactive are those of the source. Cut-off read from the data, not from the text of the source: active = GI50 up to about 1.1 µM and inactive = higher.

Experiments:
Test in all cases: NCI-60 cell line screen, 48 h
[1] = tested on: LOX IMVI
[2] = tested on: NCI-H226
[3] = tested on: PC-3
[4] = tested on: SN12C
[5] = tested on: SF-295
[6] = tested on: UO-31
[7] = tested on: HCT-15
[8] = tested on: COLO 205
[9] = tested on: TK-10
[10] = tested on: HCT-116
[11] = tested on: ACHN
[12] = tested on: SK-MEL-28
[13] = tested on: UACC-257
[14] = tested on: NCI-H522
[15] = tested on: Hs-578T
[16] = tested on: SNB-19
[17] = tested on: OVCAR-4
[18] = tested on: SF-268
[19] = tested on: SK-MEL-2
[20] = tested on: U-251
[21] = tested on: MDA-N
[22] = tested on: MCF7
[23] = tested on: EKVX
[24] = tested on: RXF 393
[25] = tested on: SNB-75
[26] = tested on: BT-549
[27] = tested on: HCC 2998
[28] = tested on: A549
[29] = tested on: UACC-62
[30] = tested on: CCRF-CEM
[31] = tested on: NCI-H23
[32] = tested on: T47D
[33] = tested on: MOLT-4
[34] = tested on: HT-29
[35] = tested on: SK-OV-3
[36] = tested on: SF-539
[37] = tested on: HL-60
[38] = tested on: SK-MEL-5
[39] = tested on: MDA-MB-435
[40] = tested on: HOP-92
[41] = tested on: HOP-62
[42] = tested on: OVCAR-5
[43] = tested on: CAKI-1
[44] = tested on: OVCAR-8
[45] = tested on: RPMI-8226
[46] = tested on: KM12
[47] = tested on: IGROV-1
[48] = tested on: OVCAR-3
[49] = tested on: 786-0
[50] = tested on: K562
[51] = tested on: DU-145
[52] = tested on: M14
[53] = tested on: NCI-H460
[54] = tested on: SW-620
[55] = tested on: SR
[56] = tested on: MDA-MB-231
[57] = tested on: Malme-3M
[58] = tested on: NCI/ADR-RES

`c1ccc2c(c1)CCN2CCc1c[nH]c2ccccc12` was tested, and the GI50 [1] was > 10 µM (inactive), the GI50 [2] was > 10 µM (inactive) and the GI50 [3] was > 10 µM (inactive). For the same molecule, the GI50 [4] was > 10 µM (inactive), the GI50 [5] was > 10 µM (inactive) and the GI50 [6] was > 10 µM (inactive). The GI50 [7] was over 10 µM, the GI50 [8] was > 10 µM (inactive) and the GI50 [9] was > 10 µM (inactive). The GI50 [10] was > 10 µM (inactive), the GI50 [11] was > 10 µM (inactive) and the GI50 [12] was > 10 µM (inactive). The GI50 [13] was > 10 µM (inactive), the GI50 [14] was > 10 µM (inactive) and the GI50 [15] was > 10 µM (inactive). The GI50 [16] was > 10 µM (inactive), the GI50 [17] was > 10 µM (inactive) and the GI50 [18] was > 10 µM (inactive). For the same molecule, the GI50 [19] was > 10 µM (inactive), the GI50 [20] was > 10 µM (inactive) and the GI50 [21] was > 10 µM (inactive). The GI50 [22] was > 10 µM (inactive), the GI50 [23] was > 10 µM (inactive) and the GI50 [24] was > 10 µM (inactive). The GI50 [25] was > 10 µM (inactive), the GI50 [26] was > 10 µM (inactive) and the GI50 [27] was > 10 µM (inactive). For the same molecule, the GI50 [28] was > 10 µM (inactive), the GI50 [29] was > 10 µM (inactive) and the GI50 [30] was > 10 µM (inactive). For the same molecule, the GI50 [31] was > 10 µM (inactive), the GI50 [32] was > 10 µM (inactive) and the GI50 [33] was > 10 µM (inactive). The GI50 [34] was > 10 µM (inactive), the GI50 [35] was > 10 µM (inactive) and the GI50 [36] was > 10 µM (inactive). For the same molecule, the GI50 [37] was > 10 µM (inactive), the GI50 [38] was > 10 µM (inactive) and the GI50 [39] was > 10 µM (inactive). For the same molecule, the GI50 [40] was > 10 µM (inactive), the GI50 [41] was > 10 µM (inactive) and the GI50 [42] was > 10 µM (inactive). For the same molecule, the GI50 [43] was > 10 µM (inactive), the GI50 [44] was > 10 µM (inactive) and the GI50 [45] was > 10 µM (inactive). The GI50 [46] was > 10 µM (inactive), the GI50 [47] was > 10 µM (inactive) and the GI50 [48] was > 10 µM (inactive). The GI50 [49] was > 10 µM (inactive), the GI50 [50] was > 10 µM (inactive) and the GI50 [51] was > 10 µM (inactive). For the same molecule, the GI50 [52] was > 10 µM (inactive), the GI50 [53] was > 10 µM (inactive) and the GI50 [54] was > 10 µM (inactive). The GI50 [55] was > 10 µM (inactive), the GI50 [56] was > 10 µM (inactive) and the GI50 [57] was > 10 µM (inactive). For the same molecule, the GI50 [58] was > 10 µM (inactive).
